This is an account of results in US6608069B1, “Phenyl xanthine derivatives” (SmithKline Beecham Corporation, priority 1998, dated 2003).

In general, IC50 refers to the concentration that inhibits the measured activity by half.

This assay relates to cytokine-stimulated human umbilical vein endothelial cells. Briefly: Cell Adhesion Assay: adherence of fluorescently-labelled leukocytes to endothelial cell monolayers. The class given is cell-based. The settings on record: inhibition of cytokine-stimulated adhesion minus basal adhesion; calcein-AM labelled leukocytes on HUVEC monolayers. The method, then:
The antiadhesion activity of compounds of the invention was determined using a modification of the previously described method, Jurgensen, C. H. et. al., J. Immunol. 144: 653-661. The adhesiveness of cytokine-stimulated human umbilical vein endothelial cells was assessed by quantitating the adherence of fluorescently-labelled (calcein-AM, Molecular Probes, Eugene, Oreg.) leukocytes to endothelial cell monolayers. Activity was determined by calculating inhibition of cytokine-stimulated adhesion minus the basal adhesion (unstimulated).

For the compound `COCCOCCOCCOCCOCCOCCOCCOCCOCCOC(=O)/C=C/c1ccc(-c2nc3c(=O)n(CC4CCCCC4)c(=O)n(CC4CCCCC4)c3[nH]2)cc1` [Example 35, (E)-4-[1,3-Bis(cyclohexylmethyl)-1,2,3,6-tetrahydro-2,6-dioxo-9H-purin-8-yl)cinnamic Acid Nonaethylene Glycol Methyl Ether Ester], the half-maximal inhibitory concentration (IC50) was 29 ± 3 nM.

With `CCCn1c(=O)c2nc(-c3ccc(/C=C/C(=O)OCCOCCOCCOCCOCCOCCOCCOCCOCCOC)cc3)[nH]c2n(CCC)c1=O` [Example 37, (E)-4-(1,3-bis(propyl)-1,2,3,6-tetrahydro-2,6-dioxo-9H-purin-8-yl)cinnamic Acid Nonaethylene Glycol Methyl Ether Ester], the half-inhibitory concentration (IC50) is 98 ± 33 nM.

Consider `COCCOCCOCCOCCOCCOCCOCCOCCOCCOC(=O)/C=C/c1ccc(-c2nc3c(=O)n(CC4CC4)c(=O)n(CC4CC4)c3[nH]2)cc1` [Example 38, (E)-4-(1,3-bis(cyclopropylmethyl)-1,2,3,6-tetrahydro-2,6-dioxo-9H-purin-8-yl)cinnamic Acid Nonaethylene Glycol Methyl Ether Ester], for which the IC50 is 150 ± 83 nM.

As for `CCCn1c(=O)c2nc(-c3cccc(/C=C/C(=O)OCCOCCOCCOCCOCCOCCOCCOCCOCCOC)c3)[nH]c2n(Cc2ccccc2)c1=O` [Example 39, (E)-3-((1-propyl-3-benzyl)-1,2,3,6-tetrahydro-2,6-dioxo-9H-purin-8-yl)cinnamic Acid Nonaethylene Glycol Methyl Ether Ester], the IC50 was 130 ± 80 nM.

`COCCOCCOCCOCCOCCOCCOCCOCCOCCOC(=O)/C=C/c1ccc(-c2nc3c(=O)n(CC4CCCCCC4)c(=O)n(CC4CCCCCC4)c3[nH]2)cc1` [Example 40, (E)-4-(1,3-bis(cycloheptylmethyl)-1,2,3,6-tetrahydro-2,6-dioxo-9H-purin-8-yl)cinnamic Acid Nonaethylene Glycol Methyl Ether Ester]: the concentration for half-maximal inhibition (IC50) is 14 ± 7 nM.

Consider `COCCOCCOCCOCCOCCOCCOCCOCCOCCOC(=O)/C=C/c1ccc(-c2nc3c(=O)n(CCC4CCCCC4)c(=O)n(CCC4CCCCC4)c3[nH]2)cc1` [Example 41, (E)-4-(1,3-bis(2-cyclohexylethyl)-1,2,3,6-tetrahydro-2,6-dioxo-9H-purin-8-yl)cinnamic Acid Nonaethylene Glycol Methyl Ether Ester], for which the concentration for half-maximal inhibition (IC50) is 21 ± 12 nM.

For the compound `COCCOCCOCCOCCOCCOCCOCCOCCOCCOC(=O)/C=C/c1ccc(-c2nc3c(=O)n(-c4ccccc4)c(=O)n(-c4ccccc4)c3[nH]2)cc1` [Example 42, (E)-4-(1,3-bis(phenyl)-1,2,3,6-tetrahydro-2,6-dioxo-9H-purin-8-yl)cinnamic Acid Nonaethylene Glycol Methyl Ether Ester], the IC50 was 12 ± 12 nM.

As to `COCCOCCOCCOCCOCCOCCOCCOCCOCCOC(=O)/C=C/c1ccc(-c2nc3c(=O)n(CC(C)C)c(=O)n(CC(C)C)c3[nH]2)cc1` [Example 43, (E)-4-(1,3-bis(2-methylpropyl)-1,2,3,6-tetrahydro-2,6-dioxo-9H-purin-8-yl)cinnamic Acid Nonaethylene Glycol Methyl Ether Ester], the IC50 was 7.1 ± 2 nM.

Turning to `COCCOCCOCCOCCOCCOCCOCCOCCOCCOC(=O)/C=C/c1ccc(-c2nc3c(=O)n(CC4CC5CCC4C5)c(=O)n(CC4CC5CCC4C5)c3[nH]2)cc1` (stereo not drawn) [Example 45, (E)-4-(1,3-bis(bicyclo(2.2.1)hept-2-ylmethyl)-1,2,3,6-tetrahydro-2,6-dioxo-9H-purin-8-yl)cinnamic Acid Nonaethylene Glycol Methyl Ether Ester], the IC50 was 42 ± 24 nM.

`COCCOCCOCCOCCOCCOCCOCCOCCOCCOC(=O)/C=C/c1cccc(-c2nc3c(=O)n(Cc4ccccc4)c(=O)n(Cc4ccccc4)c3[nH]2)c1` [Example 46, (E)-3-(1,3-bis(benzyl)-1,2,3,6-tetrahydro-2,6-dioxo-9H-purin-8-yl)cinnamic Acid Nonaethylene Glycol Methyl Ether Ester]: the half-maximal inhibitory concentration (IC50) was 890 ± 420 nM.

For `COCCOCCOCCOCCOCCOCCOCCOCCOCCOC(=O)/C=C/c1ccc(-c2nc3c(=O)n(C)c(=O)n(C)c3[nH]2)cc1` [Example 47, (E)-4-(1,3-bis(methyl)-1,2,3,6-tetrahydro-2,6-dioxo-9H-purin-8-yl)cinnamic Acid Nonaethylene Glycol Methyl Ether Ester], the IC50 is 710 ± 410 nM.

For `CCCCn1c(=O)n(CC2CCCCC2)c(=O)c2nc(-c3ccc(/C=C/C(=O)OCCOCCOCCOCCOCCOCCOCCOCCOCCOC)cc3)[nH]c21` [Example 48], the IC50 was less than 0.1 nM.

Consider `COCCOCCOCCOCCOCCOCCOCCOCCOCCOC(=O)/C=C/c1ccc(-c2nc3c(=O)n(Cc4ccccc4)c(=S)n(Cc4ccccc4)c3[nH]2)cc1` [Example 50, (E)-4-(1,3-bis(benzyl)-1,2,3,6-tetrahydro-2-thioxo-6-oxo-9H-purin-8-yl)cinnamic Acid Nonaethylene Glycol Methyl Ether Ester], for which the IC50 is 270 ± 150 nM.

Regarding `COCCOCCOCCOCCOCCOCCOCCOCCOCCOC(=O)/C=C/c1ccc(-c2nc3c(=O)n(C)c(=O)n(Cc4ccc(C#N)cc4)c3[nH]2)cc1` [Example 51, (E)-4-(1-methyl-3-(4-cyanobenzyl)-1,2,3,6-tetrahydro-2,6-dioxo-9H-purin-8-yl)cinnamic Acid Nonaethylene Glycol Methyl Ether Ester], the IC50 is greater than 2000 nM.

On to `COCCOCCOCCOCCOCCOCCOCCOCCOCCOC(=O)/C=C/c1ccc(-c2nc3c(=O)n(C)c(=O)n(Cc4cccc(C#N)c4)c3[nH]2)cc1` [Example 52, (E)-4-(1-methyl-3-(3-cyanobenzyl)-1,2,3,6-tetrahydro-2,6-dioxo-9H-purin-8-yl)cinnamic Acid Nonaethylene Glycol Methyl Ether Ester], for which the IC50 was 410 ± 60 nM.

As to `COCCOCCOCCOCCOCCOCCOCCOCCOCCOC(=O)/C=C/c1ccc(-c2nc3c(=O)n(Cc4cccc(F)c4)c(=O)n(Cc4cccc(F)c4)c3[nH]2)cc1` [Example 53, (E)-4-(1,3-bis(3-fluorobenzyl)-1,2,3,6-tetrahydro-2,6-dioxo-9H-purin-8-yl)cinnamic Acid Nonaethylene Glycol Methyl Ether Ester], the half-inhibitory concentration (IC50) is 39 ± 13 nM.

On to `COCCOCCOCCOCCOCCOCCOCCOCCOCCOC(=O)/C=C/c1ccc(-c2nc3c(=O)n(Cc4ccccc4F)c(=O)n(Cc4ccccc4F)c3[nH]2)cc1` [Example 54, (E)-4-(1,3-bis(2-fluorobenzyl)-1,2,3,6-tetrahydro-2,6-dioxo-9H-purin-8-yl)cinnamic Acid Nonaethylene Glycol Methyl Ether Ester], for which the concentration for half-maximal inhibition (IC50) was 76 ± 28 nM.

For the compound `COCCOCCOCCOCCOCCOCCOCCOCCOCCOC(=O)/C=C/c1ccc(-c2nc3c(=O)n(CCc4ccccc4)c(=O)n(CCc4ccccc4)c3[nH]2)cc1` [Example 55, (E)-4-(1,3-bis(2-phenylethyl)-1,2,3,6-tetrahydro-2,6-dioxo-9H-purin-8-yl)cinnamic Acid Nonaethylene Glycol Methyl Ether Ester], the IC50 was 51 ± 45 nM.

With `COCCOCCOCCOCCOCCOCCOCCOCCOCCOC(=O)/C=C/c1ccc(-c2nc3c(=O)n(CC4CCCCC4)c(=O)n(C)c3[nH]2)cc1` [Example 56, (E)-4-((1-cyclohexylmethyl-3-methyl)-1,2,3,6-tetrahydro-2,6-dioxo-9H-purin-8-yl)cinnamic Acid Nonaethylene Glycol Methyl Ether Ester], the concentration for half-maximal inhibition (IC50) was 160 ± 70 nM.

As to `COCCOCCOCCOCCOCCOCCOCCOCCOCCOC(=O)/C=C/c1ccc(-c2nc3c(=O)[nH]c(=O)n(CC(C)C)c3[nH]2)cc1` [Example 57], the IC50 was 83 ± 41 nM.

For the compound `COCCOCCOCCOCCOCCOCCOCCOCCOCCOC(=O)/C=C/c1ccc(-c2nc3c(=O)n(Cc4ccc(F)cc4)c(=O)n(Cc4ccc(F)cc4)c3[nH]2)cc1` [Example 58, (E)-4-(1,3-bis(4-fluorobenzyl)-1,2,3,6-tetrahydro-2,6-dioxo-9H-purin-8-yl)cinnamic Acid Nonaethylene Glycol Methyl Ether Ester], the IC50 is less than 0.1 nM.

For `CCCCCCCCCCCCOCCOCCOCCOCCOCCOCCOC(=O)/C=C/c1ccc(-c2nc3c(=O)n(CC4CCCCC4)c(=O)n(CC4CCCCC4)c3[nH]2)cc1` [Example 59, (E)-4-(1,3-bis(cyclohexylmethyl)-1,2,3,6-tetrahydro-2,6-dioxo-9H-purin-8-yl)cinnamic Acid Hexaethylene Glycol dodecyl Ether Ester], the IC50 is 57 ± 24 nM.

In the case of `CCCn1c(=O)c2nc(-c3cccc(/C=C/C(=O)OCCOCCOCCOCCOCCOCCOCCOCCOCCOC)c3)[nH]c2n(CCC)c1=O` [Example 60, (E)-3-(1,3-bis(propyl)-1,2,3,6-tetrahydro-2,6-dioxo-9H-purin-8-yl)cinnamic Acid Nonaethylene Glycol Methyl Ether Ester], the IC50 was greater than 1000 nM.

On to `COCCOCCOCCOCCOCCOCCOCCOCCOCCOC(=O)/C=C/c1ccc(-c2nc3c(=O)n(CC4CCC4)c(=O)n(CC4CCC4)c3[nH]2)cc1` [Example 61, (E)-4-(1,3-bis(cyclobutylmethyl)-1,2,3,6-tetrahydro-2,6-dioxo-9H-purin-8-yl)cinnamic Acid Nonaethylene Glycol Methyl Ether Ester], for which the IC50 was 11 ± 4 nM.

For the compound `COCCOCCOCCOCCOCCOCCOCCOCCOCCOC(=O)/C=C/c1ccc(-c2nc3c(=O)n(C)c(=O)n(CC4CCCCC4)c3[nH]2)cc1` [Example 62], the half-inhibitory concentration (IC50) was 160 ± 85 nM.

As to `COCCOCCOCCOCCOCCOCCOCCOCCOCCOC(=O)/C=C/c1ccc(-c2nc3c(=O)n(C)c(=O)n(CC(C)C)c3[nH]2)cc1` [Example 63, (E)-4-(1-methyl-3-(2-methylpropyl)-1,2,3,6-tetrahydro-2,6-dioxo-9H-purin-8-yl)cinnamic Acid Nonaethylene Glycol Methyl Ether Ester], the IC50 was 55 ± 34 nM.

Turning to `COCCOCCOCCOCCOCCOCCOCCOCCOCCOC(=O)/C=C/c1ccc(-c2nc3c(=O)n(Cc4cccnc4)c(=O)n(Cc4cccnc4)c3[nH]2)cc1` [Example 64, (E)-4-(1,3-Bis(3-pyridinylmethyl)-1,2,3,6-tetrahydro-2,6-dioxo-9H-purin-8-yl)cinnamic Acid Nonaethylene Glycol Methyl Ether Ester], the half-inhibitory concentration (IC50) was greater than 1000 nM.
